Where two headings read alike, the source gives them in different places.
Key:
Beet Armyworm [1] = assay: Control of beet armyworm in cotton; type: in vivo, beet armyworm (Spodoptera exigua)
Tobacco Budworm = assay: Tobacco budworm boll damage in cotton; type: in vivo, tobacco budworm (Heliothis virescens); details: 50 bolls, lb./A: chlorpyrifos + dimethoate 0.62, chlorpyrifos 0.50, Dash 2.0, control 45
Beet Armyworm [2] = assay: Control of beet armyworm in sweet corn; type: in vivo, beet armyworm (Spodoptera exigua)
Fall Armyworm = assay: Control of fall armyworm in sweet corn; type: in vivo, fall armyworm (S. fruqiperda)
[3] = test system: cabbage looper (Trichoplasia ni); assay: Control of cabbage pests in cabbage: cabbage looper; type: in vivo
[4] = test system: diamondback moth (Plutella xylostelia); assay: Control of cabbage pests in cabbage: diamondback moth; type: in vivo
[5] = test system: imported cabbageworm (Pieris rapae); assay: Control of cabbage pests in cabbage: imported cabbageworm; type: in vivo
Thrips = type: in vivo
[6] = test system: Colorado Potato Beetle (Leptinotarsa decemlineata); assay: Control of Colorado potato beetle in potatoes; type: in vivo; details: adjuvant 0.88 lb/A where added; for Total Number of larvae from a six meter plot, 3 DAT L2 / Total Number of larvae from a six meter plot, 7 DAT L2: first and second instar; for Total Number of larvae from a six meter plot, 3 DAT L4 / Total Number of larvae from a six meter plot, 7 DAT L4: third and fourth instar
Excerpt: The efficacy of Guthion™ (azinphosmethyl) alone and in combination with Dash HC® against the Colorado Potato Beetle (Leptinotarsa decemlineata) on potatoes. The test plot area was monitored for the presence of significant naturally occurring populations of the target pest, Colorado potato beetle (CPB). At the critical pest population threshold, treatments were applied to 6 meter, single row plots of the crop using a CO2 pressurized backpack sprayer.
Treatments were sprayed on potatoes in the early bloom stage to a mature population of the Colorado potato beetle. Larvae were evaluated in two classes: class one=first and second instar larvae, class two=third and fourth instar. Population counts were taken at 3 and 7 days after treatment. Trial results can be seen in Table 8.
Azinphosmethyl was applied at a rate of 0.375 lb ai/A. The recommended rate for CPB control. The insecticide was combined with water at a rate of 64.1 gal/acre. […].
Azinphosmethyl was applied at a rate of 0.30 lb ai/A. This is a 20% reduction below the recommended rate for CPB control. The insecticide was combined with water at a rate of 64.1 gal/Acre.
Azinphosmethyl was applied at a rate of 0.19 lb ai/A. This is ½ of the recommended label rate for CPB control. The insecticide was combined with water at a rate of 64.1 gal/acre.
Azinphosmethyl was applied at a rate of 0.375 lb ai/A. The recommended rate for CPB control. The insecticide was combined with water at a rate of 64.1 gal/a.
Azinphosmethyl was applied at a rate of 0.30 lb ai/A. This is a 20% reduction below the recommended rate for CPB control. The insecticide was combined with water at a rate of 64.1 gal/Acre. […] With the 64.1 gal of water used to deliver the mix, the resultant adjuvant concentration was 0.383%.
Azinphosmethyl was applied at a rate of 0.19 lb ai/A. This is ½ of the recommended label rate for CPB control. The insecticide was combined with water at a rate of 64.1 gal/acre. […] With the 64.1 gal of water used to deliver the mix, the resultant adjuvant concentration was 0.383%.

Bandedwinged Whitefly [7] = details: in vivo
Bandedwinged Whitefly [8] = details: in vivo; remark: listed apart in the source
cotton aphid [9] = type: in vivo; details: for Cotton aphid count 2 days after treatment: 5 leaves per plot, untreated 1277; for Cotton aphid count 2 days after treatment / Cotton aphid % control 2 days after treatment: lb./A: methyl parathion 0.5, oxydemeton-methyl 0.25, Dash 2.0, 53 gallons/A
cotton aphid [10] = type: in vivo
[11] = lb./A: chlorpyrifos + dimethoate 0.45, chlorpyrifos 0.94, Dash 2.0
[12] = chlorpyrifos 0.62 lb.ai/A, DASH 0.88 lb/a where added
[13] = chlorpyrifos 1.0 lb.ai/A, DASH 0.88 lb/a where added
[14] = chlorpyrifos 1.24 lb.ai/A alone (treatment B), control 2.3
[15] = cotton, lb./A: acephate 0.20, dicrotophos 0.20, Dash 2.0

## CCOP(=S)(OCC)Oc1nc(Cl)c(Cl)cc1Cl [Chlorpyrifos]
Beet Armyworm [1]; chlorpyrifos at half-to-two-thirds the labeled rate
  beet armyworm control, tankmixed with Dash versus applied alone at the same rates: effective and better beet armyworm control when takmixed with Dash than when applied alone
Beet Armyworm [1]; cotton, 13-ft row section, lb./A: chlorpyrifos + dimethoate 0.62, chlorpyrifos 0.50, Dash 2.0, 20 gallons/A, control 112
  # Beet Armyworms 3 days after treatment: 73
Beet Armyworm [1]; cotton, lb./A: chlorpyrifos + dimethoate 0.62, chlorpyrifos 0.50, Dash 2.0
  Beet Armyworms % control 3 days after treatment: 38%
Tobacco Budworm
  % Bolls Damaged by Tobacco Budworm 3 DAT: 42%
Beet Armyworm [2]; [11]
  Beet Armyworm % control 4 DAT: 66%
Beet Armyworm [2]; lb./A: chlorpyrifos + dimethoate 0.45, chlorpyrifos 0.94, Dash 2.0, 33 gallons/A, control 3
  # Beet Armyworm 4 DAT: 1
Fall Armyworm; [11]
  Fall Armyworm % control 4 DAT: 95%
Fall Armyworm; lb./A: chlorpyrifos + dimethoate 0.45, chlorpyrifos 0.94, Dash 2.0, 33 gallons/A, control 5
  # Fall Armyworm 4 DAT: 0.25
[3]; 3 plants per plot, chlorpyrifos 1.24 lb.ai/A alone (treatment B), control 1.7
  # of larvae TRIPNI 4DAT: 0.7
[3]; [12]
  # of larvae TRIPNI 4DAT: 2.7
  # of larvae TRIPNI 7DAT: 0.7
[3]; [13]
  # of larvae TRIPNI 4DAT: 1.3
  # of larvae TRIPNI 7DAT: 2.0
[3]; chlorpyrifos 1.24 lb.ai/A alone (treatment B), control 0.3
  # of larvae TRIPNI 7DAT: 0.7
[4]; [12]
  # of larvae PLUTMA 4DAT: 0.7
  # of larvae PLUTMA 7DAT: 0.3
[4]; [13]
  # of larvae PLUTMA 4DAT: 0.3
  # of larvae PLUTMA 7DAT: 0
[4]; chlorpyrifos 1.24 lb.ai/A alone (treatment B), control 1.7
  # of larvae PLUTMA 7DAT: 1.0
[4]; [14]
  # of larvae PLUTMA 4DAT: 1.0
[5]; [12]
  # of larvae PIERRA 4DAT: 0
  # of larvae PIERRA 7DAT: 0.3
[5]; [13]
  # of larvae PIERRA 4DAT: 0
  # of larvae PIERRA 7DAT: 1.0
[5]; [14]
  # of larvae PIERRA 7DAT: 1.3
[5]; chlorpyrifos 1.24 lb.ai/A alone (treatment B), control 4.7
  # of larvae PIERRA 4DAT: 0

## COP(=O)(OC)O/C(C)=C/C(=O)N(C)C [Dicrotophos]
Thrips; in vivo
  # Thrips/10 Plants, 0 DAT: 228 ± 108
  # Thrips/10 Plants, 1 DAT: 31 ± 12
  # Thrips/10 Plants, 5 DAT: 36 ± 28
  # Thrips/10 Plants, 9 DAT: 35 ± 16
  Thrips % control, 1 DAT: (73) %
  Thrips % control, 5 DAT: (45) %
  Thrips % control, 9 DAT: (03) %

## COP(=S)(OC)SCn1nnc2ccccc2c1=O [azinphosmethyl]
[6]; azinphosmethyl 0.19 lb ai/A
  Total Number of larvae from a six meter plot, 3 DAT L2: 4.0
  Total Number of larvae from a six meter plot, 7 DAT L2: 1.3
  Total Number of larvae from a six meter plot, 3 DAT L4: 11.7
  Total Number of larvae from a six meter plot, 7 DAT L4: 6.0
[6]; azinphosmethyl 0.30 lb ai/A
  Total Number of larvae from a six meter plot, 3 DAT L2: 5.0
  Total Number of larvae from a six meter plot, 7 DAT L2: 1.0
  Total Number of larvae from a six meter plot, 3 DAT L4: 7.7
  Total Number of larvae from a six meter plot, 7 DAT L4: 3.0
[6]; azinphosmethyl 0.375 lb ai/A, control 3.0
  Total Number of larvae from a six meter plot, 7 DAT L2: 6.0
[6]; azinphosmethyl 0.375 lb ai/A, control 29.7
  Total Number of larvae from a six meter plot, 3 DAT L2: 0.7
[6]; azinphosmethyl 0.375 lb ai/A, control 24.3
  Total Number of larvae from a six meter plot, 7 DAT L4: 5.0
[6]; azinphosmethyl 0.375 lb ai/A, control 79.3
  Total Number of larvae from a six meter plot, 3 DAT L4: 12.3

## COP(=O)(NC(C)=O)SC (stereo not shown) [Acephate, O,S-dimethyl acetylphosphoramidothioate]
Bandedwinged Whitefly [7]
  # Whitefly adults counted, 7 days after treatment: 54
  Whitefly adults % control, 3 days after treatment: (98) %
  Whitefly adults % control, 7 days after treatment: (90) %
Bandedwinged Whitefly [8]
  Whitefly adults % control, 3 days after treatment: (98) %
Thrips; [15]
  Thrips % control, 1 DAT: (80) %
  Thrips % control, 5 DAT: (35) %
  Thrips % control, 9 DAT: (44) %
Thrips; cotton, lb./A: acephate 0.20, dicrotophos 0.20, Dash 2.0, 15 gallons/A, control 252 ± 88
  # Thrips/10 Plants, 0 DAT: 174 ± 50
Thrips; cotton, lb./A: acephate 0.20, dicrotophos 0.20, Dash 2.0, control 36 ± 32
  # Thrips/10 Plants, 9 DAT: 20 ± 18
Thrips; cotton, lb./A: acephate 0.20, dicrotophos 0.20, Dash 2.0, control 65 ± 43
  # Thrips/10 Plants, 5 DAT: 42 ± 17
Thrips; cotton, lb./A: acephate 0.20, dicrotophos 0.20, Dash 2.0, control 115 ± 50
  # Thrips/10 Plants, 1 DAT: 21 ± 9

## CC[S+]([O-])CCSP(=O)(OC)OC (stereo not shown) [Oxydemeton-methyl]
Cotton aphid [9]
  Cotton aphid count 2 days after treatment: 74
  Cotton aphid % control 2 days after treatment: 94%
Cotton aphid [9]; in vivo
  aphid control on tank-mixing with the adjuvant: Improvement in aphid control

## COP(=S)(OC)Oc1ccc([N+](=O)[O-])cc1 [Methyl parathion, O,O-dimethyl O-(4-nitrophenyl)phosphorothioate]
Cotton aphid [9]
  Cotton aphid count 2 days after treatment: 293
  Cotton aphid % control 2 days after treatment: 77%
Cotton aphid [9]; rates below the recommended maximum rate for aphid control
  cotton aphid control, tank-mixed with the adjuvant versus applied alone: much higher when tank-mixed with the adjuvant than when applied alone
Cotton aphid [10]; in vivo
  Cotton aphid % control 2 days after treatment: 21 (84) %
  Cotton aphid count 2 days after treatment: 21 (84)

## CNC(=O)CSP(=S)(OC)OC [Dimethoate, O,O-dimethyl S-methylcarbamoylmethyl phosphorodithioate]
Cotton aphid [10]; in vivo
  aphid control on tank-mixing with the adjuvant: Improvement in aphid control
Cotton aphid [10]; okra, 20 leaves per plot, lb./A: methyl parathion 0.5, dimethoate 0.25, chlorpyrifos 0.17 + dimethoate 0.14, Dash 2.0, 30 gallons/A, untreated 132
  Cotton aphid count 2 days after treatment: 19
Cotton aphid [10]; okra, lb./A: methyl parathion 0.5, dimethoate 0.25, chlorpyrifos 0.17 + dimethoate 0.14, Dash 2.0, 30 gallons/A
  Cotton aphid % control 2 days after treatment: 86%
